Reference: the supplement of paper PMC11061612

Legend:
[1] = system: SK-MM-2 (Plasma Cell Myeloma); assay: combination Emax (second highest fraction inhibited in the dose matrix, 72 h); higher = more inhibition; extreme values may be limits of the assay
Method in brief: (§1)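 After 24 hours at 37°C and 5% CO2 in 1536-well plates, cells in DMEM/F12 or RPMI plus 10% FBS received two-drug dose matrices for 72 hours. Viability came from CellTiter-Glo 2.0 luminescence and was scaled as inhibition, anchored at 0 by vehicle wells and at 1 by blank wells. Combination Emax is taken as the second-highest inhibition in the matrix, and Bliss excess as the observed combination effect less EA + EB − EA·EB, with EA and EB the single-agent effects.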

[2] = system: CHL-1 (Melanoma); assay: as above
Method in brief: as §1

[3] = system: NCI-H810 (Non-Small Cell Lung Carcinoma); assay: as above
Method in brief: as §1

[4] = system: PC-14 (Lung Adenocarcinoma); assay: as above
Method in brief: as §1

[5] = system: EB-3 (Burkitt's Lymphoma); assay: as above
Method in brief: as §1

[6] = system: OV-90 (Ovarian Carcinoma); assay: as above
Method in brief: as §1

[7] = system: COLO-684 (Endometrial Carcinoma); assay: as above
Method in brief: as §1

[8] = system: SW684 (Other Solid Carcinomas); assay: as above
Method in brief: as §1

[9] = system: CML-T1 (Chronic Myelogenous Leukemia); assay: as above
Method in brief: as §1

[10] = system: Becker (Low Grade Glioma); assay: as above
Method in brief: as §1

[11] = system: KYSE-70 (Esophageal Squamous Cell Carcinoma); assay: as above
Method in brief: as §1

[12] = system: FLO-1 (Esophageal Adenocarcinoma); assay: as above
Method in brief: as §1

[13] = system: PANC-02-03 (Pancreatic Carcinoma); assay: as above
Method in brief: as §1

[14] = system: LOUCY (T-Lymphoblastic Leukemia); assay: as above
Method in brief: as §1

[15] = system: KYM-1 (Rhabdomyosarcoma); assay: as above
Method in brief: as §1

[16] = system: HCC-44 (Lung Adenocarcinoma); assay: as above
Method in brief: as §1

[17] = system: NCI-H1755 (Lung Adenocarcinoma); assay: as above
Method in brief: as §1

[18] = system: NKM-1 (Acute Myeloid Leukemia); assay: as above
Method in brief: as §1

[19] = system: RMG-I (Ovarian Carcinoma); assay: as above
Method in brief: as §1

[20] = system: LAMA-84 (Chronic Myelogenous Leukemia); assay: as above
Method in brief: as §1

[21] = system: SK-MM-2 (Plasma Cell Myeloma); assay: Bliss excess, mean over the matrix (fraction); higher = more synergy
Method in brief: as §1

[22] = system: CHL-1 (Melanoma); assay: as above
Method in brief: as §1

[23] = system: NCI-H810 (Non-Small Cell Lung Carcinoma); assay: as above
Method in brief: as §1

[24] = system: PC-14 (Lung Adenocarcinoma); assay: as above
Method in brief: as §1

[25] = system: EB-3 (Burkitt's Lymphoma); assay: as above
Method in brief: as §1

[26] = system: OV-90 (Ovarian Carcinoma); assay: as above
Method in brief: as §1

[27] = system: COLO-684 (Endometrial Carcinoma); assay: as above
Method in brief: as §1

[28] = system: SW684 (Other Solid Carcinomas); assay: as above
Method in brief: as §1

[29] = system: CML-T1 (Chronic Myelogenous Leukemia); assay: as above
Method in brief: as §1

[30] = system: Becker (Low Grade Glioma); assay: as above
Method in brief: as §1

[31] = system: KYSE-70 (Esophageal Squamous Cell Carcinoma); assay: as above
Method in brief: as §1

[32] = system: FLO-1 (Esophageal Adenocarcinoma); assay: as above
Method in brief: as §1

[33] = system: PANC-02-03 (Pancreatic Carcinoma); assay: as above
Method in brief: as §1

[34] = system: LOUCY (T-Lymphoblastic Leukemia); assay: as above
Method in brief: as §1

[35] = system: KYM-1 (Rhabdomyosarcoma); assay: as above
Method in brief: as §1

[36] = system: HCC-44 (Lung Adenocarcinoma); assay: as above
Method in brief: as §1

[37] = system: NCI-H1755 (Lung Adenocarcinoma); assay: as above
Method in brief: as §1

[38] = system: NKM-1 (Acute Myeloid Leukemia); assay: as above
Method in brief: as §1

[39] = system: RMG-I (Ovarian Carcinoma); assay: as above
Method in brief: as §1

[40] = system: LAMA-84 (Chronic Myelogenous Leukemia); assay: as above
Method in brief: as §1
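For Bliss excess, mean over the matrix in this document: after 72 h of two-drug dosing.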

In the case of `CN(CCO)CC[C@H](CSc1ccccc1)Nc1ccc(S(=O)(=O)NC(=O)c2ccc(N3CCC([C@@H](O)c4ccccc4-c4ccc(Cl)cc4)CC3)cc2)cc1S(=O)(=O)C(F)(F)F` [AZD4320] + CS(=O)(=O)CCNCc1ccc(-c2ccc3ncnc(Nc4ccc(OCc5cccc(F)c5)c(Cl)c4)c3c2)o1 [Lapatinib] (first compound max 1 µM, 7x7, partner max 10 µM), the “combination Emax” value [1] is reported as 1, the “combination Emax” value [2] is reported as 0.718 and the “combination Emax” value [3] is reported as 0.518. For the same compound, the “combination Emax” value [4] was 0.964, the “combination Emax” value [5] was 0.605 and the “combination Emax” value [6] was 0.849. The “combination Emax” value [7] was 0.34, the “combination Emax” value [8] was 0.823 and the “combination Emax” value [9] was 1. The “combination Emax” value [10] was 0.912, the “combination Emax” value [11] was 0.177 and the “combination Emax” value [12] was 0.842. For the same compound, the “combination Emax” value [13] was 0.875, the “combination Emax” value [14] was 1 and the “combination Emax” value [15] was 0.395. For the same compound, the “combination Emax” value [16] was 0.472, the “combination Emax” value [17] was 0.702 and the “combination Emax” value [18] was 1. For the same compound, the “combination Emax” value [19] was 0.972, the “combination Emax” value [20] was 0.989 and the Bliss excess [21] was 0.0729. The Bliss excess [22] was 0.0412, the Bliss excess [23] was -0.0665 and the Bliss excess [24] was 0.0043. It also gave a Bliss excess [25] of -0.0721, a Bliss excess [26] of -0.02 and a Bliss excess [27] of -0.0766. The Bliss excess [28] was -0.0169, the Bliss excess [29] was -0.0077 and the Bliss excess [30] was 0.0497. The Bliss excess [31] was -0.0022, the Bliss excess [32] was 0.0298 and the Bliss excess [33] was 0.0082. For the same compound, the Bliss excess [34] was 0.0586, the Bliss excess [35] was 0.021 and the Bliss excess [36] was -0.0303. It also gave a Bliss excess [37] of 0.0015, a Bliss excess [38] of 0.0418 and a Bliss excess [39] of 0.0763. For the same compound, the Bliss excess [40] was 0.0411.
`CC1(C)CCC(CN2CCN(c3ccc(C(=O)NS(=O)(=O)c4ccc(NCC5CCOCC5)c([N+](=O)[O-])c4)c(Oc4cnc5[nH]ccc5c4)c3)CC2)=C(c2ccc(Cl)cc2)C1` [Venetoclax] + CS(=O)(=O)CCNCc1ccc(-c2ccc3ncnc(Nc4ccc(OCc5cccc(F)c5)c(Cl)c4)c3c2)o1 [Lapatinib] (first compound max 1 µM, 7x7, partner max 10 µM) was tested, and the “combination Emax” value [1] was 1, the “combination Emax” value [2] was 0.528 and the “combination Emax” value [3] was 0.181. For the same compound, the “combination Emax” value [4] was 0.909, the “combination Emax” value [5] was 0.568 and the “combination Emax” value [6] was 0.149. The “combination Emax” value [7] was 0.343, the “combination Emax” value [8] was 0.112 and the “combination Emax” value [9] was 0.539. For the same compound, the “combination Emax” value [10] was 0.147, the “combination Emax” value [11] was 0.145 and the “combination Emax” value [12] was 0.318. The “combination Emax” value [13] was 0.294, the “combination Emax” value [14] was 1 and the “combination Emax” value [15] was 0.291. For the same compound, the “combination Emax” value [16] was 0.226, the “combination Emax” value [17] was 0.262 and the “combination Emax” value [18] was 0.764. For the same compound, the “combination Emax” value [19] was 0.493, the “combination Emax” value [20] was 0.182 and the Bliss excess [21] was 0.0104. For the same compound, the Bliss excess [22] was 0.0208, the Bliss excess [23] was -0.065 and the Bliss excess [24] was -0.013. It also gave a Bliss excess [25] of -0.0478, a Bliss excess [26] of -0.0522 and a Bliss excess [27] of -0.0236. For the same compound, the Bliss excess [28] was -0.0757, the Bliss excess [29] was 0.0154 and the Bliss excess [30] was -0.0179. The Bliss excess [31] was -0.0418, the Bliss excess [32] was -0.0279 and the Bliss excess [33] was -0.0113. The Bliss excess [34] was 0.0911, the Bliss excess [35] was -0.0027 and the Bliss excess [36] was -0.0326. The Bliss excess [37] was -0.031, the Bliss excess [38] was 0.108 and the Bliss excess [39] was 0.0483. For the same compound, the Bliss excess [40] was -0.0046.
For `N#Cc1cnc(Nc2cc(NC[C@H]3CNCCO3)c(C(F)(F)F)cn2)cn1` [SRA737] + O=c1[nH]cc(F)c(=O)[nH]1 [5-Fluorouracil] (first compound max 10 µM, 7x7, partner max 20 µM), the “combination Emax” value [1] was 0.473, the “combination Emax” value [2] was 0.494 and the “combination Emax” value [3] was 0.427. For the same compound, the “combination Emax” value [4] was 0.696, the “combination Emax” value [5] was 0.624 and the “combination Emax” value [6] was 0.247. The “combination Emax” value [7] was 0.644, the “combination Emax” value [8] was 0.273 and the “combination Emax” value [9] was 0.994. For the same compound, the “combination Emax” value [10] was 0.644, the “combination Emax” value [11] was 0.196 and the “combination Emax” value [12] was 0.803. For the same compound, the “combination Emax” value [13] was 0.407, the “combination Emax” value [14] was 0.911 and the “combination Emax” value [15] was 0.927. The “combination Emax” value [16] was 0.861, the “combination Emax” value [17] was 0.679 and the “combination Emax” value [18] was 0.919. For the same compound, the “combination Emax” value [19] was 0.106, the “combination Emax” value [20] was 0.913 and the Bliss excess [21] was -0.034. The Bliss excess [22] was -0.0351, the Bliss excess [23] was -0.0924 and the Bliss excess [24] was -0.0109. The Bliss excess [25] was -0.0561, the Bliss excess [26] was -0.0306 and the Bliss excess [27] was -0.0334. It also gave a Bliss excess [28] of -0.0315, a Bliss excess [29] of -0.0498 and a Bliss excess [30] of 0.0222. For the same compound, the Bliss excess [31] was -0.0214, the Bliss excess [32] was 0.0266 and the Bliss excess [33] was 0.0463. For the same compound, the Bliss excess [34] was -0.0122, the Bliss excess [35] was -0.0559 and the Bliss excess [36] was 0.125. It also gave a Bliss excess [37] of 0.0078, a Bliss excess [38] of -0.0812 and a Bliss excess [39] of -0.0735. The Bliss excess [40] was -0.057.
